From US20110281854A1, “MORPHOLINE COMPOUNDS” (Pfizer Inc, priority 2010, published 2011)

What follows are compounds tested against T1, MR (Homo sapiens, UniProt P08235) (assay: Cell-based reporter assay (Gal4-MR-LBD luciferase, antagonist mode)).
T1 construct: expressed in transfected cells; host or cells: Huh7 human liver cells (ATCC), transient transfection with FuGENE 6
T1 sequence (P08235 726-964 limits assumed): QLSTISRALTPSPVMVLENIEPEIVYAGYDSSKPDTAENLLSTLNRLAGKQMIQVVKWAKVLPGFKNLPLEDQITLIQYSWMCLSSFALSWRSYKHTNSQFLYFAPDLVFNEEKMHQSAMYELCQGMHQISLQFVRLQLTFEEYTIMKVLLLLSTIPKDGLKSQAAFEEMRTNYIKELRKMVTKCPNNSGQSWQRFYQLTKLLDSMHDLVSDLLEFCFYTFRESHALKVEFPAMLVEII
Procedure: To measure the ability of test compound in the present invention to modulate the activity of MR (agonize, antagonize, partially agonize, partially antagonize), bioassays were performed that measured the modulation of reporter gene expression. Cells were transiently transfected with a luciferase reporter gene under the control of a Gal4 response element (Gal4-RE-luc) and a plasmid containing the Gal4 DNA binding domain fused to the MR ligand binding domain (Gal4-MR-LBD). Agonists can bind to and activate the MR-LBD, which activates the expression of the luciferase reporter gene through interaction with the Gal4 response element. […] Antagonists can compete for binding to the NHR-LBD and decrease the agonist-induced transcriptional activity of the reporter gene. Therefore, measurement of luciferase activity allowed quantitative determinations of the reporter transcription in the presence of either agonists or competitive antagonists.
The final concentration of DMSO in the test plate was 0.5%. Following an overnight incubation with compound, 25 μL of Steady-Glow™ lysis buffer with luciferase substrate (Promega Corporation, E2550) was added directly to the cells. After a 30-minute incubation to completely lyse the cells, the microplates were counted in an Envision™ Multilabel Reader (Perkin Elmer) in single photon counting mode.

Row | Structure (SMILES) | IC50 [nM]
1 | C[C@H]1CN(c2cc3c(cn2)OCC(=O)N3)[C@@H](c2ccccc2F)CO1 (racemic) [Example 32, (±)-7-(cis-5-(2-fluorophenyl)-2-methylmorpholino)-1H-pyrido[3,4-b][1,4]oxazin-2(3H)-one] | 111
2 | O=C1COc2ccc(N3CC4(COC4)OC[C@H]3c3ccccc3)nc2N1 [Example 70, (R)-6-(7-phenyl-2,5-dioxa-8-azaspiro[3.5]nonan-8-yl)-2H-pyrido[3,2-b][1,4]oxazin-3(4H)-one] | 628
3 | C[C@@H]1CN(c2ccc3c(n2)NC(=O)CO3)[C@H](c2ccccc2Cl)CO1 (single isomer, unassigned) [Example 67] | 135
4 | O=C1COc2ccc(N3CCOC4(CCOc5ccccc54)C3)cc2N1 (stereo not shown) [Example 73, 6-(spiro[chroman-4,2′-morpholine]-4′-yl)-2H-benzo[b][1,4]oxazin-3(4H)-one] | 6340
5 | C[C@H]1CN(c2ccc3c(n2)NC(=O)CO3)[C@@H](c2ccccc2Cl)CO1 (racemic) [Example 66, (±)-6-(cis-5-(2-chlorophenyl)-2-methylmorpholino)-2H-pyrido[3,2-b][1,4]oxazin-3(4H)-one] | 451
6 | Cc1cc(N2CCOC[C@H]2c2ccccc2)cc2c1OCC(=O)N2 (single isomer, unassigned) [Example 22] | 885
7 | CC1(c2ccccc2)CN(c2ccc3c(c2)NC(=O)CO3)CCO1 (stereo not shown) [Example 38, 6-(2-methyl-2-phenylmorpholino)-2H-benzo[b][1,4]oxazin-3(4H)-one] | 4970
8 | Cc1cc(N2C[C@@H](C)OC[C@H]2c2ccccc2)nc2c1OCC(=O)N2 [Example 5, 8-methyl-6-((2R,5R)-2-methyl-5-phenylmorpholino)-2H-pyrido[3,2-b][1,4]oxazin-3(4H)-one] | 174
9 | CCC1CN(c2ccc3c(n2)NC(=O)CO3)CCO1 (stereo not shown) [Example 26, 6-(2-ethylmorpholino)-2H-pyrido[3,2-b][1,4]oxazin-3(4H)-one] | 3370
10 | C[C@@H]1CN(c2nc3c(cc2F)OCC(=O)N3)[C@H](c2ccccc2)CO1 [Example 37, 7-fluoro-6-((2R,5R)-2-methyl-5-phenylmorpholino)-2H-pyrido[3,2-b][1,4]oxazin-3(4H)-one] | 1440
11 | C[C@@H]1CN(c2ncc3c(n2)NC(=O)CO3)[C@H](c2ccccc2F)CO1 (single isomer, unassigned) [Example 35] | 104
12 | C[C@@H]1CN(c2ccc3c(n2)NC(=O)CO3)[C@H](c2ccccc2F)CO1 (single isomer, unassigned) [Example 8] | 33.4
13 | C[C@@H]1CN(c2nc3c(cc2C#N)OCC(=O)N3)[C@H](c2ccccc2)CO1 [Example 60, 6-((2R,5R)-2-methyl-5-phenylmorpholino)-3-oxo-3,4-dihydro-2H-pyrido[3,2-b][1,4]oxazine-7-carbonitrile] | 9560
14 | Cc1c(NS(C)(=O)=O)cccc1N1C[C@@H](C)OC[C@H]1c1ccccc1 [Example 63, N-(2-methyl-3-((2R,5R)-2-methyl-5-phenylmorpholino)phenyl)methanesulfonamide] | 4270
15 | C[C@@H]1CN(c2ccc3c(c2)NS(=O)(=O)CO3)[C@H](c2ccccc2)CO1 [Example 47, 7-[(2R,5R)-2-methyl-5-phenylmorpholin-4-yl]-1H-4,2,1-benzoxathiazine 2,2-dioxide] | 1630
16 | C[C@@H]1CN(c2ccc3c(n2)NC(=O)CO3)[C@@H]2c3ccccc3C[C@@H]2O1 (single isomer, unassigned) [Example 23] | 284
17 | O=C1COc2ccc(N3C[C@@H](C4CC4)OC[C@H]3c3ccccc3)nc2N1 [Example 31, 6-((2R,5R)-2-cyclopropyl-5-phenylmorpholino)-2H-pyrido[3,2-b][1,4]oxazin-3(4H)-one] | 913
18 | Cc1nc(N2C[C@@H](C)OC[C@H]2c2ccccc2)nc2c1OCC(=O)N2 [Example 68, 4-methyl-2-((2R,5R)-2-methyl-5-phenylmorpholino)-6H-pyrimido[5,4-b][1,4]oxazin-7(8H)-one] | 2280
19 | N#CC[C@@H]1CN(c2ccc3c(n2)NC(=O)CO3)[C@H](c2ccccc2)CO1 [Example 40, 2-((2R,5R)-4-(3-oxo-3,4-dihydro-2H-pyrido[3,2-b][1,4]oxazin-6-yl)-5-phenylmorpholin-2-yl)acetonitrile] | 97.9
20 | C[C@H]1CN(c2cc3c(cn2)OCC(=O)N3)[C@@H](c2cccc(F)c2)CO1 (racemic) [Example 50, (±)-7-(cis-5-(3-fluorophenyl)-2-methylmorpholino)-1H-pyrido[3,4-b][1,4]oxazin-2(3H)-one] | 272
21 | O=C1COc2ccc(N3CCOC[C@H]3c3ccc(F)cc3)nc2N1 (single isomer, unassigned) [Example 14] | 1100
22 | C[C@@H]1CN(c2cnc3c(c2)NC(=O)CO3)[C@H](c2ccccc2)CO1 [Example 58, 7-((2R,5R)-2-methyl-5-phenylmorpholino)-1H-pyrido[2,3-b][1,4]oxazin-2(3H)-one] | 2990
23 | CC1(C)CN(c2ccc3c(n2)NC(=O)CO3)[C@H](c2ccccc2)CO1 [Example 13, (R)-6-(2,2-dimethyl-5-phenylmorpholino)-2H-pyrido[3,2-b][1,4]oxazin-3(4H)-one] | 407
24 | C[C@H]1CN(c2ncc3c(n2)NC(=O)CO3)[C@@H](c2cccc(F)c2)CO1 (racemic) [Example 51, (±)-2-(cis-5-(3-fluorophenyl)-2-methylmorpholino)-6H-pyrimido[5,4-b][1,4]oxazin-7(8H)-one] | 537
25 | O=C1COc2ccc(N3CCOC[C@@H]3c3ccccc3)cc2N1 [Example 41, (S)-6-(3-phenylmorpholino)-2H-benzo[b][1,4]oxazin-3(4H)-one] | 5230
26 | C[C@@H]1CN(c2ccc3oc(=O)[nH]c3c2)[C@H](c2ccccc2)CO1 [Example 45, 5-((2R,5R)-2-methyl-5-phenylmorpholino)benzo[d]oxazol-2(3H)-one] | 349
27 | C[C@@H]1CN(c2ccc3c(c2)NC(=O)CO3)[C@H](c2ccccc2)CO1 [Example 28, 6-((2R,5R)-2-methyl-5-phenylmorpholino)-2H-benzo[b][1,4]oxazin-3(4H)-one] | 24
28 | COc1ccccc1[C@H]1CO[C@@H](C)CN1c1cc2c(cn1)OCC(=O)N2 (racemic) [Example 62, (±)-7-(cis-5-(2-methoxyphenyl)-2-methylmorpholino)-1H-pyrido[3,4-b][1,4]oxazin-2(3H)-one] | 7910
